Experimental findings from patent US10988449B2, “Isoxazole derivatives as nuclear receptor agonists and uses thereof” (IL DONG PHARMACEUTICAL CO., LTD., priority 2017, dated 2021) are described below.

In this experiment the target is T1, human FXR (Homo sapiens, UniProt Q96RI1).
T1 construct: expressed in transfected cells
T1 sequence (Q96RI1 1-486): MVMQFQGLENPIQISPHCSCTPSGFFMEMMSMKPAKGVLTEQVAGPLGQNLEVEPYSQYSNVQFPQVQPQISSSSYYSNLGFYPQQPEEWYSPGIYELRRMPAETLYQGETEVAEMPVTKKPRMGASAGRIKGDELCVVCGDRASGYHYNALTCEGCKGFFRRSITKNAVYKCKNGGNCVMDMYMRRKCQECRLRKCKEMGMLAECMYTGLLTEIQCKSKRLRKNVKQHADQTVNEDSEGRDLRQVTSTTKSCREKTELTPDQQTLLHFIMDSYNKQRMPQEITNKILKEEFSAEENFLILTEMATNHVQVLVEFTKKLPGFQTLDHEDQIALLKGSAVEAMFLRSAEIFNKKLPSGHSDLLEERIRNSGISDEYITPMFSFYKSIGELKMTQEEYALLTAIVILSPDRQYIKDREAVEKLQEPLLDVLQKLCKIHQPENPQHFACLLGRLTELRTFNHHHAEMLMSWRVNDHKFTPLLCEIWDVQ
The experiment can be described thus: FXR reporter assay (cellular FXR activities). The settings on record: for EC50: FXR reporter cells, 24 hours incubation, luciferase, read-out: Reporter Cell EC50; for Emax: read-out: Emax (%) (GW4064 Emax = 100%). The experiment is classed as cell-based. The protocol: FXR reporter assay was performed to measure cellular FXR activities of the compounds in the present invention. FXR reporter cells with high expression level of human FXR were seeded into 96-well cell culture plates, and incubated for 1-2 hours at 37° C. under 5% CO2 atmosphere. The invented compounds diluted in DMSO with various concentrations were added to the 96-well cell culture plates, and they were incubated for 24 hours at 37° C. under 5% CO2 atmosphere. After incubation, we calculate EC50 by using luciferase substrate.
In general terms: A reporter such as luciferase makes a cellular process visible.

By EC50 is commonly meant the midpoint of the concentration-response curve. A word on the Emax: it is the maximal effect, on the per cent scale that the assay sets. On to `O=C(O)c1ccc(C#Cc2ccc(OCc3c(-c4c(Cl)cccc4Cl)noc3C3CC3)cc2)cc1` [Compound I-1, 4-((4-((5-cyclopropyl-3-(2,6-dichlorophenyl)isoxazol-4-yl)methoxy)phenyl)ethynyl)benzoic acid], for which the EC50 was > 1000 nM and the maximum response (Emax) was > 100%.

`O=C(O)c1ccc(C#Cc2ccc(OCc3c(-c4c(Cl)cccc4Cl)noc3C3CC3)cc2C(F)(F)F)cc1` [Compound I-4, 4-((4 ((5-cyclopropyl-3-(2,6-dichlorophenyl)isoxazol-4-yl)methoxy)-2-(trifluoromethyl)phenyl)ethynyl)benzoic acid]: the EC50 was in the range of 60 to 200 nM and the maximum response (Emax) came to 91%.

Regarding `C#Cc1ccc(OCc2c(-c3c(Cl)cccc3Cl)noc2C2CC2)cc1Cl` [Compound I-5, 4-((3-chloro-4-ethynylphenoxy)methyl)-5-cyclopropyl-3-(2,6-dichlorophenyl)isoxazole], the concentration for a half-maximal effect (EC50) lay in the range of 200 to 1000 nM and the Emax turned out to be 84%.

Regarding `COC(=O)c1cccc(C#Cc2ccc(OCc3c(-c4c(Cl)cccc4Cl)noc3C3CC3)cc2Cl)c1` [Compound I-7, methyl 3-((2-chloro-4-((5-cyclopropyl-3-(2,6-dichlorophenyl)isoxazol-4-yl)methoxy)phenyl)ethynyl)benzoate], the concentration giving a half-maximal response (EC50) is > 1000 nM and the Emax is 85%.

`CCOC(=O)Nc1cc(C#Cc2ccc(OCc3c(-c4c(Cl)cccc4Cl)noc3C3CC3)cc2Cl)cc(C(=O)OC)c1` [Compound I-8, methyl 3-((2-chloro-4-((5-cyclopropyl-3-(2,6-dichlorophenyl)isoxazol-4-yl)methoxy)phenyl)ethynyl)-5-((ethoxycarbonyl)amino)benzoate]: the EC50 is > 1000 nM and the maximal effect (Emax) is 98%.

`CCOC(=O)Nc1cccc(C#Cc2ccc(OCc3c(-c4c(Cl)cccc4Cl)noc3C3CC3)cc2Cl)c1` [Compound I-11, ethyl (3-((2-chloro-4-((5-cyclopropyl-3-(2,6-dichlorophenyl)isoxazol-4-yl)methoxy)phenyl)ethynyl)phenyl)carbamate]: the EC50 is > 1000 nM and the Emax is 90%.

`NS(=O)(=O)c1cccc(C#Cc2ccc(OCc3c(-c4c(Cl)cccc4Cl)noc3C3CC3)cc2Cl)c1` [Compound I-12, 3-((2-chloro-4-((5-cyclopropyl-3-(2,6-dichlorophenyl)isoxazol-4-yl)methoxy)phenyl)ethynyl)benzenesulfonamide]: the concentration giving a half-maximal response (EC50) lay within 200 to 1000 nM and the Emax was > 100%.

Take `CS(=O)(=O)Nc1cccc(C#Cc2ccc(OCc3c(-c4c(Cl)cccc4Cl)noc3C3CC3)cc2Cl)c1` [Compound I-13, N-(3-((2-chloro-4-((5-cyclopropyl-3-(2,6-dichlorophenyl)isoxazol-4-yl)methoxy)phenyl)ethynyl)phenyl)methanesulfonamide]: the EC50 was 200 to 1000 nM and the Emax is 90%.

For the compound `NS(=O)(=O)Nc1cccc(C#Cc2ccc(OCc3c(-c4c(Cl)cccc4Cl)noc3C3CC3)cc2Cl)c1` [Compound I-14, N-(3-((2-chloro-4-((5-cyclopropyl-3-(2,6-dichlorophenyl)isoxazol-4-yl)methoxy)phenyl)ethynyl)phenyl)sulfamide], the EC50 is 200 to 1000 nM and the Emax was found to be 96%.

As to `O=C(O)c1ccc(C#Cc2ccc(OCc3c(-c4c(Cl)cccc4Cl)noc3C3CC3)cc2Cl)nc1` [Compound I-17, 6-((2-chloro-4-((5-cyclopropyl-3-(2,6-dichlorophenyl)isoxazol-4-yl)methoxy)phenyl)ethynyl)nicotinic acid], the EC50 is 200 to 1000 nM and the Emax came out at 89%.

Regarding `O=C(O)c1ccnc(C#Cc2ccc(OCc3c(-c4c(Cl)cccc4Cl)noc3C3CC3)cc2Cl)c1` [Compound I-18, 2-((2-chloro-4-((5-cyclopropyl-3-(2,6-dichlorophenyl)isoxazol-4-yl)methoxy)phenyl)ethynyl)isonicotinic acid], the EC50 lay in the range of 200 to 1000 nM and the Emax came out at 87%.

Take `O=C(O)c1cccc(C#Cc2ccc(OCc3c(-c4c(Cl)cccc4Cl)noc3C3CC3)cc2Cl)n1` [Compound I-19, 6-((2-chloro-4-((5-cyclopropyl-3-(2,6-dichlorophenyl)isoxazol-4-yl)methoxy)phenyl)ethynyl)picolinic acid]: the EC50 is ≤ 20 nM and the Emax came out at 99%.

In the case of `CN(C)c1cc(C(=O)O)ccc1C#Cc1ccc(OCc2c(-c3c(Cl)cccc3Cl)noc2C2CC2)cc1Cl` [Compound I-22, 4-((2-chloro-4-((5-cyclopropyl-3-(2,6-dichlorophenyl)isoxazol-4-yl)methoxy)phenyl)ethynyl)-3-(dimethylamino)benzoic acid], the half-maximal effective concentration (EC50) was 60 to 200 nM and the Emax was found to be 93%.

Take `CN(C)c1cc(C#Cc2ccc(OCc3c(-c4c(Cl)cccc4Cl)noc3C3CC3)cc2Cl)ccc1C(=O)O` [Compound I-23, 4-((2-chloro-4-((5-cyclopropyl-3-(2,6-dichlorophenyl)isoxazol-4-yl)methoxy)phenyl)ethynyl)-2-(dimethylamino)benzoic acid]: the EC50 is 60 to 200 nM and the Emax was > 100%.

On to `CCN(CC)c1cc(C#Cc2ccc(OCc3c(-c4c(Cl)cccc4Cl)noc3C3CC3)cc2Cl)cc(C(=O)O)c1` [Compound I-24, 3-((2-chloro-4-((5-cyclopropyl-3-(2,6-dichlorophenyl)isoxazol-4-yl)methoxy)phenyl)ethynyl)-5-(diethylamino)benzoic acid], for which the EC50 is 20 to 60 nM and the Emax was > 100%.

With `CN(C)c1ccc(C(=O)O)cc1C#Cc1ccc(OCc2c(-c3c(Cl)cccc3Cl)noc2C2CC2)cc1Cl` [Compound I-26, 3-((2-chloro-4-((5-cyclopropyl-3-(2,6-dichlorophenyl)isoxazol-4-yl)methoxy)phenyl)ethynyl)-4-(dimethylamino)benzoic acid], the 50% effective concentration (EC50) lay in the range of 200 to 1000 nM and the Emax is > 100%.

For `O=C(O)c1cc(Cl)cc(C#Cc2ccc(OCc3c(-c4c(Cl)cccc4Cl)noc3C3CC3)cc2Cl)c1` [Compound I-27, 3-chloro-5-((2-chloro-4-((5-cyclopropyl-3-(2,6-dichlorophenyl)isoxazol-4-yl)methoxy)phenyl)ethynyl)benzoic acid], the EC50 fell in the range of 20 to 60 nM and the Emax was determined as 91%.

In the case of `O=C(O)c1cc(C#Cc2ccc(OCc3c(-c4c(Cl)cccc4Cl)noc3C3CC3)cc2Cl)ccc1Cl` [Compound I-29, 2-chloro-5-((2-chloro-4-((5-cyclopropyl-3-(2,6-dichlorophenyl)isoxazol-4-yl)methoxy)phenyl)ethynyl)benzoic acid], the EC50 fell in the range of 60 to 200 nM and the Emax was determined as 93%.

Turning to `O=C(O)c1cc(C#Cc2ccc(OCc3c(-c4c(Cl)cccc4Cl)noc3C3CC3)cc2Cl)cc(C(F)(F)F)c1` [Compound I-31, 3-((2-chloro-4-((5-cyclopropyl-3-(2,6-dichlorophenyl)isoxazol-4-yl)methoxy)phenyl)ethynyl)-5-(trifluoromethyl)benzoic acid], the EC50 lay within 20 to 60 nM and the Emax is > 100%.

Regarding `C#Cc1cc(C#Cc2ccc(OCc3c(-c4c(Cl)cccc4Cl)noc3C3CC3)cc2Cl)cc(C(=O)O)c1` [Compound I-32, 3-((2-chloro-4-((5-cyclopropyl-3-(2,6-dichlorophenyl)isoxazol-4-yl)methoxy)phenyl)ethynyl)-5-ethynylbenzoic acid], the EC50 is 60 to 200 nM and the Emax stood at 94%.
